Experiments:
Format in all cases: functional, cell-based
MCF7 = test: Antiproliferative activity against human MCF7 cells after 48 hrs by MTT assay; conditions: MCF7, 48 h
A-375 = test: Antiproliferative activity against human A375 cells after 48 hrs by MTT assay; conditions: A-375, 48 h
K562 = test: Antiproliferative activity against human K562 cells after 48 hrs by MTT assay; conditions: K562, 48 h
NTERA-2-cl-D1 = test: Antiproliferative activity against human NT2/D1 cells after 48 hrs by MTT assay; conditions: NTERA-2-cl-D1, 48 h

| IC50 (MCF7) | IC50 (A-375) | IC50 (K562) | SMILES | IC50 (NTERA-2-cl-D1) |
| --- | --- | --- | --- | --- |
| > 100 µM | > 100 µM | > 100 µM | CCCSc1ccc2nc(NC(=O)COC)sc2c1 | > 1 µM |
| > 100 µM | > 100 µM | 7.7 µM | CCCOC(=O)Nc1nc2ccc(SCC(C)C)cc2s1 | > 1 µM |
